This passage reports melting point and Ki results from patent publication US7244722B2, “Amino-substituted 1H-pyrazin-2-ones and 1H-quinoxalin-2-ones” (Biovitrum AB, priority 2002, dated 2007).

Structures can show the parent of a compound that is named as a salt.

One data set concerns the target T1, human 5-HT2A receptor (Homo sapiens, UniProt P28223).
T1 construct: expressed in transfected cells
The data set is described as follows: 5-HT2A receptor affinity assay: competition with 3H-labeled LSD on membranes of transfected CHO cells. The note with it: displacement of 3H-LSD; membranes from transfected CHO cell line stably expressing the human 5-HT2A receptor; non-specific binding defined with mianserin (5 μM). The procedure: The 5-HT2A receptor affinity of compounds in the Examples was determined in competition experiments, where the ability of each compound in serial dilution to displace ^3H-labeled lysergic diethyl amide (LSD), bound to membranes prepared from a transfected CHO cell line stably expressing the human 5-HT2A receptor protein, was measured after rapid filtration through glass fiber filters. Non-specific binding was defined using mianserin (5 μM). The 5-HT2A receptor affinity values are expressed as Ki values.
In general terms: Displacement assays read how much labelled ligand stays bound in the presence of the test substance.

The term melting point denotes the temperature, or range, at which the solid turns liquid. As a reminder, the Ki is a measure of affinity in units of concentration, obtained from inhibition or displacement.

T1 sequence (P28223 whole entry): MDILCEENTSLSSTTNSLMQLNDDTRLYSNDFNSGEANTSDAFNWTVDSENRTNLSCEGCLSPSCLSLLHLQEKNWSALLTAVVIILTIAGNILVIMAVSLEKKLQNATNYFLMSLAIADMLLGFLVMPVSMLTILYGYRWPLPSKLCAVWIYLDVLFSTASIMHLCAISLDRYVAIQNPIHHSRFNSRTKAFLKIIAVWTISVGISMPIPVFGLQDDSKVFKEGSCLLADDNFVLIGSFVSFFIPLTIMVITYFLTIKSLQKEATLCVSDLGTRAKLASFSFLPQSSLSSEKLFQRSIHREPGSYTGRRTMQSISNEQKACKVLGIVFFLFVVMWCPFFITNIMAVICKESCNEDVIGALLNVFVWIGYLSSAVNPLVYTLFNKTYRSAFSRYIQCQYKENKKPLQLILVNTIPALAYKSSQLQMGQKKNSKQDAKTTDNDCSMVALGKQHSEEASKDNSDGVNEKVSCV

Compound `CN(C)c1cccc(OCCn2ccnc(N3CCNCC3)c2=O)c1` (as salt: fumarate) [Example 20, 1-{2-[3-(N,N-Dimethylamino)phenoxy]ethyl}-3-(1-piperazinyl)-pyrazin-2(1H)-one] gave a melting point of 180 to 191 °C. Compound `O=c1c(N2CCNCC2)nccn1CCOc1ccc([N+](=O)[O-])cc1F` (as salt: hydrochloride) [Example 1, 1-[2-(2-Fluoro-4-nitrophenoxy)ethyl]-3-(1-piperazinyl)-2(1H)-pyrazinone] registered a melting point of 105 to 108 °C.

`O=c1c(N2CCNCC2)nccn1CCOc1cc(F)c(F)cc1F` (as salt: hydrochloride) [Example 3, 3-(1-Piperazinyl)-1-[2-(2,4,5-trifluorophenoxy)ethyl]-2(1H)-pyrazinone]: the melting point fell in the range of 193 to 195 °C. For the compound `O=c1c(N2CCNCC2)nccn1CCOc1c(F)c(F)cc(F)c1F` (as salt: hydrochloride) [Example 4, 3-(1-Piperazinyl)-1-[2-(2,3,5,6-tetrafluorophenoxy)ethyl]-2(1H)-pyrazinone], the melting point was 196 to 198 °C (dec.). Still for that read-out and setting: with `O=c1c(N2CCNCC2)nccn1CCOc1noc2ccccc12` (as salt: hydrochloride) [Example 9, 1-[2-(1,2-Benzisoxazol-3-yloxy)ethyl]-3-(1-piperazinyl)-2(1H)-pyrazinone] the figure was 174 to 176 °C; with `O=c1c(N2CCN(Cc3ccccc3)CC2)nccn1CCOc1cc(F)c(F)cc1F` (as salt: hydrochloride) [Example 63, 3-(4-Benzylpiperazin-1-yl)-1-[2-(2,4,5-trifluorophenoxy)ethyl]pyrazin-2(1H)-one], 214 to 214.5 °C. On the same count and under the same terms, with `C=CCc1ccc(OCCn2ccnc(N3CCNCC3)c2=O)c(OC)c1` (as salt: maleate) [Example 65, 1-[2-(4-Allyl-2-methoxyphenoxy)ethyl]-3-piperazin-1-ylpyrazin-2(1H)-one] the figure was 158 to 160 °C. In the case of `O=c1c(N2CCNCC2)nccn1CCCCOc1cc(F)c(F)cc1F` (as salt: trifluoroacetate) [Example 58, 1-[4-(2,4,5-Trifluorophenoxy)butyl]-3-(1-piperazinyl)-2(1H)-pyrazinone], the melting point was 113.4 to 116.6 °C (dec.). With `O=c1c(N2CCNCC2)nccn1CCCOc1cc(F)c(F)cc1F` (as salt: trifluoroacetate) [Example 59, 1-[3-(2,4,5-Trifluorophenoxy)propyl]-3-(1-piperazinyl)-2(1H)-pyrazinone], the melting point is 100.3 to 100.9 °C (dec.). Still for that read-out and setting: with `CC(c1ccccc1)N1CCN(c2nccn(CCOc3cc(F)c(F)cc3F)c2=O)CC1` (racemic) (as salt: hydrochloride) [Example 60, 3-[4-(1-Phenylethyl)piperazin-1-yl]-1-[2-(2,4,5-trifluorophenoxy)ethyl]pyrazin-2(1H)-one] the figure was 137 to 139 °C. In the case of `O=c1ccc2ccc(OCCn3ccnc(N4CCNCC4)c3=O)cc2o1` [Example 2, 1-{2-[(2-Oxo-2H-chromen-7-yl)oxy]ethyl}-3-(1-piperazinyl)-2(1H)-pyrazinone], the Ki on human 5-HT2A receptor was 152 nM.

On to `O=c1c(N2CCNCC2)nccn1CCOc1cc(F)c(F)cc1F` [Example 3, 3-(1-Piperazinyl)-1-[2-(2,4,5-trifluorophenoxy)ethyl]-2(1H)-pyrazinone], for which, at human 5-HT2A receptor, the Ki came out at 2.2 nM. With `N#Cc1cccc(OCCn2ccnc(N3CCNCC3)c2=O)c1` [Example 7, 1-[2-(3-Cyanophenoxy)ethyl]-3-(1-piperazinyl)-2(1H)-pyrazinone], the melting point is 49 to 52 °C. Consider `CCCCOc1cccc(OCCn2ccnc(N3CCNCC3)c2=O)c1` [Example 11, 1-[2-(3-n-Butyloxyphenoxy)ethyl]-3-(1-piperazinyl)-2(1H)-pyrazinone], for which affinity at human 5-HT2A receptor was put at a Ki of 2.5 nM. For `O=c1c(N2CCNCC2)nccn1CCOc1ccc(F)c(F)c1F` [Example 13, 3-(1-Piperazinyl)-1-[2-(2,3,4-trifluorophenoxy)ethyl]-2(1H)-pyrazinone], the Ki at human 5-HT2A receptor turned out to be 29 nM. The compound `O=c1c(N2CCNCC2)nccn1CCOc1cccc([N+](=O)[O-])c1` [Example 23, 1-[2-(3-Nitrophenoxy)ethyl]-3-(1-piperazinyl)-2(1H)-pyrazinone] returned a melting point of 171 °C. At human 5-HT2A receptor, the affinity corresponds to a Ki of 13 nM. Consider `O=C(c1ccccc1)c1cccc(OCCn2ccnc(N3CCNCC3)c2=O)c1` [Example 24, 1-[2-(3-Benzoylphenoxy)ethyl]-3-(1-piperazinyl)-2(1H)-pyrazinone], for which the melting point is 69 to 70 °C. The Ki at human 5-HT2A receptor was found to be 3.6 nM.

Compound `O=c1c(N2CCNCC2)nccn1CCOc1cc(F)cc(F)c1` [Example 25, 1-[2-(3,5-Difluorophenoxy)ethyl]-3-(1-piperazinyl)-2(1H)-pyrazinone] showed a melting point of 119 to 121 °C. At human 5-HT2A receptor, `O=c1c(N2CCNCC2)nccn1CCOc1ccc(C(F)(F)F)cc1` [Example 29, 1-[2-(4-Trifluoromethylphenoxy)ethyl]-3-(1-piperazinyl)-2(1H)-pyrazinone] came in with a Ki of 8 nM. At human 5-HT2A receptor, `O=c1c(N2CCNCC2)nccn1CCOc1ccc(Oc2ccccc2)cc1` [Example 31, 1-[2-{4-Phenoxy-(phenoxy)}ethyl]-3-(1-piperazinyl)-2(1H)-pyrazinone] returned a Ki of 4.4 nM. On the same count and under the same terms, the value for `O=c1c(N2CCN(CCc3ccccc3)CC2)nccn1CCOc1cc(F)c(F)cc1F` [Example 62, 3-[4-(2-Phenylethyl)piperazin-1-yl-]1-[2-(2,4,5-trifluorophenoxy)ethyl]pyrazin-2(1H)-one] was 0.15 nM; that for `O=c1c(N2CCN(Cc3ccccc3)CC2)nccn1CCOc1cc(F)c(F)cc1F` [Example 63, 3-(4-Benzylpiperazin-1-yl)-1-[2-(2,4,5-trifluorophenoxy)ethyl]pyrazin-2(1H)-one] was 1.4 nM.
